The target of this assay is T1, p38alpha (Homo sapiens, UniProt Q16539).
T1 construct: GST (N); made in house; host or cells: E. coli (pGEX vector)
T1 sequence (Q16539 whole entry): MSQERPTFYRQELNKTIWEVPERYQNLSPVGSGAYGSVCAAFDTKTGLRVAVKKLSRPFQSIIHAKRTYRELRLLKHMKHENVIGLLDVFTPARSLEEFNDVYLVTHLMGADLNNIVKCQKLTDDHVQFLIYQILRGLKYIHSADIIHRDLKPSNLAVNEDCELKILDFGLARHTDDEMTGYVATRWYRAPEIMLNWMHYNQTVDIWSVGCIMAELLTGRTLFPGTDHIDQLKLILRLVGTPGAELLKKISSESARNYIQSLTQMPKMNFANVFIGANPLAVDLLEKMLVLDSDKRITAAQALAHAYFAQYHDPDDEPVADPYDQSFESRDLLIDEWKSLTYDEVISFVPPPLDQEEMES
As to the kind of experiment: p38α Assay (Caliper LabChip, fluoresceinated peptide). Type of assay: biochemical. The settings on record: ratio of p38 beta IC50 to p38 alpha IC50; higher numbers indicate greater alpha selectivity.
Regarding `Cc1ccc(C(=O)NC2CC2)cc1NC(=O)c1ccc(-c2cccc(C(=O)O)c2)s1` [Example 146, 3-(5-(5-(cyclopropylcarbamoyl)-2-methylphenylcarbamoyl)thiophen-2-yl)benzoicacid], the “beta/alpha (alpha selectivity)” value is listed as 248.

For the compound `Cc1ccc(C(=O)NC2CC2)cc1NC(=O)c1ccc(-c2cc(F)cc(F)c2)s1` [Example 148, N-(5-(cyclopropylcarbamoyl)-2-methylphenyl)-5-(3,5-difluorophenyl)thiophene-2-carboxamide], the “beta/alpha (alpha selectivity)” value is on record as 160. The figure for `COc1ccc(-c2ccc(C(=O)Nc3cc(C(=O)NC4CC4)ccc3C)s2)c(OC)c1` [Example 153, N-(5-(cyclopropylcarbamoyl)-2-methylphenyl)-5-(2,4-dimethoxyphenyl)thiophene-2-carboxamide] is 228; for `Cc1ccc(C(=O)NC2CC2)cc1NC(=O)c1ccc(-c2cccc(N)c2)s1` [Example 159, 5-(3-aminophenyl)-N-(5-(cyclopropylcarbamoyl)-2-methylphenyl)thiophene-2-carboxamide] it is 200; for `Cc1ccc(C(=O)NC2CC2)cc1NC(=O)c1ccc(-c2cccc(CO)c2)s1` [Example 160, N-(5-(cyclopropylcarbamoyl)-2-methylphenyl)-5-(3-(hydroxymethyl)phenyl)thiophene-2-carboxamide] it is 233. For `Cc1ccc(C(=O)NC2CC2)cc1NC(=O)c1ccc(-c2ccc(F)nc2)s1` [Example 169, N-(5-(cyclopropylcarbamoyl)-2-methylphenyl)-5-(6-fluoropyridin-3-yl)thiophene-2-carboxamide] the value was 257; for `CCNC(=O)c1ccc(-c2ccc(C(=O)Nc3cc(C(=O)NC4CC4)ccc3C)s2)cc1` [Example 181, N-(5-(cyclopropylcarbamoyl)-2-methylphenyl)-5-(4-(ethylcarbamoyl)phenyl)thiophene-2-carboxamide], 240; for `Cc1ccc(C(=O)NC2CC2)cc1NC(=O)c1ccc(-c2ccc(C(=O)NC(C)C)cc2)s1` [Example 182, N-(5-(cyclopropylcarbamoyl)-2-methylphenyl)-5-(4-(isopropylcarbamoyl)phenyl)thiophene-2-carboxamide], 118. `Cc1ccc(C(=O)NC2CC2)cc1NC(=O)c1ccc(-c2ccc(C(N)=O)cc2)s1` [Example 185, 5-(4-carbamoylphenyl)-N-(5-(cyclopropylcarbamoyl)-2-methylphenyl)thiophene-2-carboxamide]: the “beta/alpha (alpha selectivity)” value came out at 162. For `Cc1ccc(C(=O)NC2CC2)cc1NC(=O)c1ccc(-c2ccc[n+]([O-])c2)s1` [Example 196, 3-(5-(5-(Cyclopropylcarbamoyl)-2-methylphenylcarbamoyl)thiophen-2-yl)pyridine 1-oxide] the value was 225; for `Cc1ccc(C(=O)NC2CC2)cc1NC(=O)c1cc(-c2cccnc2)cs1` [Example 204, N-(5-(Cyclopropylcarbamoyl)-2-methylphenyl)-4-(pyridin-3-yl)thiophene-2-carboxamide], 379; for `Cc1ccc(C(=O)NC2CC2)cc1NC(=O)c1ccc(-c2ncccc2C(F)(F)F)s1` [Example 210, N-(5-(Cyclopropylcarbamoyl)-2-methylphenyl)-5-(3-(trifluoromethyl)pyridin-2-yl)thiophene-2-carboxamide], 433. On to `Cc1ccc(C(=O)NC2CC2)cc1NC(=O)c1c[nH]c2ccccc12` [Example 221, N-(5-(cyclopropylcarbamoyl)-2-methylphenyl)-1H-indole-3-carboxamide], for which the “beta/alpha (alpha selectivity)” value was 540. For `Cc1ccc(C(=O)NC2CC2)cc1NC(=O)c1ccc2c(C#N)cn(C)c2c1` [Example 223, 3-Cyano-N-(5-(cyclopropylcarbamoyl)-2-methylphenyl)-1-methyl-1H-indole-6-carboxamide] the value was 423; for `Cc1ccc(C(=O)NC2CC2)cc1NC(=O)c1ccc2ccn(CCN3CCOCC3)c2c1` [Example 225, N-(5-(Cyclopropylcarbamoyl)-2-methylphenyl)-1-(2-morpholinoethyl)-1H-indole-6-carboxamide], 448.
